Drawing on ChEMBL document CHEMBL4725218, “Deep Learning Enhancing Kinome-Wide Polypharmacology Profiling: Model Construction and Experiment Validation” (J Med Chem, 2020), this text covers Activity for one compound.

Assay [1] deals with Mitogen-activated protein kinase 14 (Homo sapiens) (UniProt Q16539). The assay is described as follows: Inhibition of human p38alpha assessed as remaining enzyme activity at 1 uM.
For assay [2], the target named is Tyrosine-protein kinase ABL1 (Mus musculus) (UniProt P00520). The experiment in a line: Inhibition of mouse Abl assessed as remaining enzyme activity at 1 uM.
The target of assay [3] is Tyrosine-protein kinase Blk (Mus musculus) (UniProt P16277). The experiment in a line: Inhibition of mouse BLK assessed as remaining enzyme activity at 1 uM.
Assay [4] deals with NT-3 growth factor receptor (Homo sapiens) (UniProt Q16288). The assay is described as follows: Inhibition of human TRKC assessed as remaining enzyme activity at 1 uM.
The target of assay [5] is Ephrin type-A receptor 2 (Homo sapiens) (UniProt P29317). The experiment in a line: Inhibition of human EphA2 assessed as remaining enzyme activity at 1 uM.
Assay [6] concerns the target Tyrosine-protein kinase ABL2 (Mus musculus) (UniProt Q4JIM5). The experiment in a line: Inhibition of mouse ARG assessed as remaining enzyme activity at 1 uM.
In assay [7] the target is Platelet-derived growth factor receptor alpha (Homo sapiens) (UniProt P16234). The assay is described as follows: Inhibition of human PDGFRAlpha assessed as remaining enzyme activity at 1 uM.
Assay [8] has as its target Serine/threonine-protein kinase TAO1 (Homo sapiens) (UniProt Q7L7X3). The experiment in a line: Inhibition of human TAO1 assessed as remaining enzyme activity at 1 uM.
Assay [9] addresses Cyclin-dependent kinase-like 2 (Homo sapiens) (UniProt Q92772). The assay is described as follows: Inhibition of human CDKL2 assessed as remaining enzyme activity at 1 uM.
The target of assay [10] is Vascular endothelial growth factor receptor 3 (Homo sapiens) (UniProt P35916). The experiment in a line: Inhibition of human VEGFR3 assessed as remaining enzyme activity at 0.1 uM.
In assay [11] the target is T1, Homeodomain-interacting protein kinase 4 (Homo sapiens) (UniProt Q8NE63).
T1 sequence (whole entry): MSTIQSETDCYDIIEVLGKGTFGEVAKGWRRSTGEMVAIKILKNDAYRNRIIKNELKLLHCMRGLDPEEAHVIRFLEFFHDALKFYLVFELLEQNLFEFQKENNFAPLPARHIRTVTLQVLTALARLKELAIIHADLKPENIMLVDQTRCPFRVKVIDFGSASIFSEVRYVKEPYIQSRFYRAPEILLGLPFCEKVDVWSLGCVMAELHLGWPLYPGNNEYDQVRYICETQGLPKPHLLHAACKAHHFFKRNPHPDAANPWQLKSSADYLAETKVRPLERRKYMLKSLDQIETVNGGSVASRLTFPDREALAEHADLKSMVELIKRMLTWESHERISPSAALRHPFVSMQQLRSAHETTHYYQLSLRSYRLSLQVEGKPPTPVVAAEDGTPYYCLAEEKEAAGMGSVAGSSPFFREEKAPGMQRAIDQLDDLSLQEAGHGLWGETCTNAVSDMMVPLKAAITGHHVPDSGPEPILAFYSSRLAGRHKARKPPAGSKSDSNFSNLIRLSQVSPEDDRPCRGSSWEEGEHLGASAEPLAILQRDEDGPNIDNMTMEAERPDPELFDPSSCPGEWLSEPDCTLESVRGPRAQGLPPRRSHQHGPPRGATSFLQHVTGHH
The assay is described as follows: Inhibition of human HIPK4 assessed as remaining enzyme activity at 0.1 uM.

Assay [12] has as its target Mitogen-activated protein kinase kinase kinase kinase 5 (Homo sapiens) (UniProt Q9Y4K4). The experiment in a line: Inhibition of human MAP4K5 assessed as remaining enzyme activity at 0.1 uM.
Assay [13] addresses BDNF/NT-3 growth factors receptor (Homo sapiens) (UniProt Q16620). The assay is described as follows: Inhibition of human TRKB assessed as remaining enzyme activity at 0.1 uM.
In assay [14] the target is Tyrosine-protein kinase Lyn (Homo sapiens) (UniProt P07948). The experiment in a line: Inhibition of human LYN assessed as remaining enzyme activity at 0.1 uM.
For assay [15], the target named is T2, Ephrin type-A receptor 8 (Homo sapiens) (UniProt P29322).
T2 sequence (whole entry): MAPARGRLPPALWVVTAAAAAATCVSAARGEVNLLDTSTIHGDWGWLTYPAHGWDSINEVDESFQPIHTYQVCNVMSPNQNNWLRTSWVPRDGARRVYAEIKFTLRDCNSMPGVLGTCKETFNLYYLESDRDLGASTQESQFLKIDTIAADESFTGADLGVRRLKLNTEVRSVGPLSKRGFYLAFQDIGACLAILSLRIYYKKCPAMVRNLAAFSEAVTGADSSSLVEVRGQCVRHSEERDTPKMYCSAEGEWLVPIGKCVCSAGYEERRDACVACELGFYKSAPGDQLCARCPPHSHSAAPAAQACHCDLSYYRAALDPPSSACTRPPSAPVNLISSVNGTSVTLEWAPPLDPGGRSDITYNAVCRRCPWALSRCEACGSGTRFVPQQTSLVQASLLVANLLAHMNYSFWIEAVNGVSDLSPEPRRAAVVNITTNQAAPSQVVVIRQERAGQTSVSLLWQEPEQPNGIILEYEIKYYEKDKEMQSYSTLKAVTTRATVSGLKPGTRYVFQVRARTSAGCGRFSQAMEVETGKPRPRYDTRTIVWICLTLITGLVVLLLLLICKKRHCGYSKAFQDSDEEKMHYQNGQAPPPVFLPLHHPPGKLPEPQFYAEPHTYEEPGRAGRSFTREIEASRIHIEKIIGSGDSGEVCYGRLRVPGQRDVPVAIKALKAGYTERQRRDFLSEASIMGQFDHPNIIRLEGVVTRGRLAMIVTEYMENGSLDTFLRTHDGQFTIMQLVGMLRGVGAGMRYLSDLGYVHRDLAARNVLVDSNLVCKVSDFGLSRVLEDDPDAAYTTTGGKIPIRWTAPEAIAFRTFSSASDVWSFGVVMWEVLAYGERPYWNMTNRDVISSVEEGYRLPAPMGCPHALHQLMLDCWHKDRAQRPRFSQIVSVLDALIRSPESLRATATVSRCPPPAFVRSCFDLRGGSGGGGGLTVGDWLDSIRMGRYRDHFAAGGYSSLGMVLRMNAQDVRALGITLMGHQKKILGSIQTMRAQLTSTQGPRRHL
The assay is described as follows: Inhibition of human EphA8 assessed as remaining enzyme activity at 0.1 uM.

Assay [16] deals with Mitogen-activated protein kinase kinase kinase 20 (Homo sapiens) (UniProt Q9NYL2). The experiment in a line: Inhibition of human ZAK assessed as remaining enzyme activity at 0.01 uM.
Assay [17] has as its target T1, Homeodomain-interacting protein kinase 4 (Homo sapiens). The experiment in a line: Inhibition of human HIPK4 assessed as remaining enzyme activity at 0.01 uM.
Assay [18] has as its target Mitogen-activated protein kinase kinase kinase kinase 5 (Homo sapiens) (UniProt Q9Y4K4). The experiment in a line: Inhibition of human MAP4K5 assessed as remaining enzyme activity at 0.01 uM.
For assay [19], the target named is BDNF/NT-3 growth factors receptor (Homo sapiens) (UniProt Q16620). The experiment in a line: Inhibition of human TRKB assessed as remaining enzyme activity at 0.01 uM.
Assay [20] addresses Epithelial discoidin domain-containing receptor 1 (Homo sapiens) (UniProt Q08345). The assay is described as follows: Inhibition of human DDR1 assessed as remaining enzyme activity at 0.01 uM.
Assay [21] deals with Homeodomain-interacting protein kinase 3 (Homo sapiens) (UniProt Q9H422). The assay is described as follows: Inhibition of human HIPK3 assessed as remaining enzyme activity at 0.01 uM.
Assay [22] has as its target Homeodomain-interacting protein kinase 2 (Homo sapiens) (UniProt Q9H2X6). The experiment in a line: Inhibition of human HIPK2 assessed as remaining enzyme activity at 0.01 uM.

Structures are written as SMILES.

Mitogen-activated protein kinase kinase kinase kinase 5 (Homo sapiens), sequence (Q9Y4K4 whole entry, looked up): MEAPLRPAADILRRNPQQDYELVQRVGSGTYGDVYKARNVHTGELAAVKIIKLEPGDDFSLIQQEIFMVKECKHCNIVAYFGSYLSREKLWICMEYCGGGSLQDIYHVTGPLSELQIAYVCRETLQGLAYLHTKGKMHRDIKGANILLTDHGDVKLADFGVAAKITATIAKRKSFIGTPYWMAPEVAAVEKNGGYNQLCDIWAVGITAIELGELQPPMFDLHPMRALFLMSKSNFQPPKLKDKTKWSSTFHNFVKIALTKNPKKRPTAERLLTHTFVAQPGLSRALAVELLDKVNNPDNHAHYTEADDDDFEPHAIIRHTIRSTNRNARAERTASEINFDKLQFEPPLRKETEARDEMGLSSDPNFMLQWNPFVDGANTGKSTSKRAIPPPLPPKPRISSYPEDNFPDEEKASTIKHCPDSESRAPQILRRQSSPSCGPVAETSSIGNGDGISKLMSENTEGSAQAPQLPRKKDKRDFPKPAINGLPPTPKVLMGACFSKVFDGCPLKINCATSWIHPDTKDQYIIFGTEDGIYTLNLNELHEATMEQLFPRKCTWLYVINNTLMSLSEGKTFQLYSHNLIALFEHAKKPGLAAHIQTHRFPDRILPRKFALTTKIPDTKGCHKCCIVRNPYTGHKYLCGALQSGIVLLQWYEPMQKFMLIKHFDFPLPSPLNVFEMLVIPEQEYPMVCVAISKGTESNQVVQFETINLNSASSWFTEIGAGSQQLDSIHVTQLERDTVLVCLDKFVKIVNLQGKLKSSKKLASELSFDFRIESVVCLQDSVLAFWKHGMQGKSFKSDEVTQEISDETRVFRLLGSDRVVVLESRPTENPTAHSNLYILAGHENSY
BDNF/NT-3 growth factors receptor (Homo sapiens), sequence (Q16620 32-822 limits assumed): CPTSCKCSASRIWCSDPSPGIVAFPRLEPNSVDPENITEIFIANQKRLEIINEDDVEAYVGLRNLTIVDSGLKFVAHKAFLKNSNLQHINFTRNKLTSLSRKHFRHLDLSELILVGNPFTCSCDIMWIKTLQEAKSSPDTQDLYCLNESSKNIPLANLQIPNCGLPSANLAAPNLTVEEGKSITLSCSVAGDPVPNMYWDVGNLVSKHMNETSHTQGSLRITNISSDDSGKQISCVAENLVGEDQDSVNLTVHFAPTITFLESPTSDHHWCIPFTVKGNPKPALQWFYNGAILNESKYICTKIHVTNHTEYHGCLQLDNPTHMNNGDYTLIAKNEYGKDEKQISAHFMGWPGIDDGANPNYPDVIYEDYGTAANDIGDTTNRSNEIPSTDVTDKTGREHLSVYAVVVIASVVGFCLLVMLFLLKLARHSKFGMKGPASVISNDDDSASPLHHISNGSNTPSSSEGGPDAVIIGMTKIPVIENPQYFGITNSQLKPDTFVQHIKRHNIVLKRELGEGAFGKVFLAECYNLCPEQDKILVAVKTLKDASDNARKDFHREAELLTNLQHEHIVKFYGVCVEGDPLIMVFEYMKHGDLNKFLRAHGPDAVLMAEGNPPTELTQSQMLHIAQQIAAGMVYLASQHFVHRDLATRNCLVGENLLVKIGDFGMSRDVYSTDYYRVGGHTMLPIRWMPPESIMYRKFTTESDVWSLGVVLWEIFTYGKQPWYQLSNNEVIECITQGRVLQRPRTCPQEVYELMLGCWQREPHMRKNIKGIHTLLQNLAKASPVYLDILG
Homeodomain-interacting protein kinase 2 (Homo sapiens), sequence (Q9H2X6 whole entry, looked up): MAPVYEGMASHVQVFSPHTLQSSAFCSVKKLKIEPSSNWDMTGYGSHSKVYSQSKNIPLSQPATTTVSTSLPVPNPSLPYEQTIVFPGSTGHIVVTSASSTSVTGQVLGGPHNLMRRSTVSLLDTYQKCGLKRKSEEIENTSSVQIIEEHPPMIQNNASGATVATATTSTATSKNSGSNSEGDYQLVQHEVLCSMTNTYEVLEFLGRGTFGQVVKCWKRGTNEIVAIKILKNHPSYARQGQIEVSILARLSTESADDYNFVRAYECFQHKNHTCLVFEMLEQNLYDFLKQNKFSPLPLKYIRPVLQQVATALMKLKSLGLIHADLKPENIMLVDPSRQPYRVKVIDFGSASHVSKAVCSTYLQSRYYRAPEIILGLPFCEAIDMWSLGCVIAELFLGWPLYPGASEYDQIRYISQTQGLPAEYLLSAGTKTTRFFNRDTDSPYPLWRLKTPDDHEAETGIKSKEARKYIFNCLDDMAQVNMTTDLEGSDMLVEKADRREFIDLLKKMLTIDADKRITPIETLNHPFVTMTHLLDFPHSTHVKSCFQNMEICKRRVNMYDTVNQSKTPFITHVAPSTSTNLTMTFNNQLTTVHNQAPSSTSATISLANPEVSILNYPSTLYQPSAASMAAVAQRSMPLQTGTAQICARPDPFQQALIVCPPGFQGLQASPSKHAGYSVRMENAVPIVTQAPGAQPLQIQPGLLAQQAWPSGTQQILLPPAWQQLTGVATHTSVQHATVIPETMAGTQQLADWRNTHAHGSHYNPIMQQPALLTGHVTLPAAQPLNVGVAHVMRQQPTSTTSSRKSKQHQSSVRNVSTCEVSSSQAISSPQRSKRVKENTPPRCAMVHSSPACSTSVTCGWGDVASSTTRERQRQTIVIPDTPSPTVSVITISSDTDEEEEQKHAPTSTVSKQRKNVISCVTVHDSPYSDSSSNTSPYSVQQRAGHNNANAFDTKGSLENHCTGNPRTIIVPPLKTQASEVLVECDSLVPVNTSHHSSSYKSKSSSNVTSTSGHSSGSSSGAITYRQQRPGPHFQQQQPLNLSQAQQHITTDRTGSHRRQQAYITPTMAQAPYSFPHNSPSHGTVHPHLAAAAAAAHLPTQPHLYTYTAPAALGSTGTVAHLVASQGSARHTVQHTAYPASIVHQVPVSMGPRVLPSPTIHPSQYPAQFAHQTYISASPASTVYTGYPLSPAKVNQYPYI
Mitogen-activated protein kinase 14 (Homo sapiens), sequence (Q16539 whole entry): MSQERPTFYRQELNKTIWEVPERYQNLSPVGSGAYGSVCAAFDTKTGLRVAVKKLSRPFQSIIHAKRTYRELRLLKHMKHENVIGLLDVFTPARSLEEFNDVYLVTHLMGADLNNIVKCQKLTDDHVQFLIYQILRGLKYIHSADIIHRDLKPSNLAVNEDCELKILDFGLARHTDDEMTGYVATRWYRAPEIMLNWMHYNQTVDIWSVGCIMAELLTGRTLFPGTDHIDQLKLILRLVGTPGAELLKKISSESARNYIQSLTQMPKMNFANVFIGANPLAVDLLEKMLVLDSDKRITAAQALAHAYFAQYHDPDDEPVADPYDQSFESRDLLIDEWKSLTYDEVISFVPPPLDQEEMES
Tyrosine-protein kinase Blk (Mus musculus), sequence (P16277 whole entry): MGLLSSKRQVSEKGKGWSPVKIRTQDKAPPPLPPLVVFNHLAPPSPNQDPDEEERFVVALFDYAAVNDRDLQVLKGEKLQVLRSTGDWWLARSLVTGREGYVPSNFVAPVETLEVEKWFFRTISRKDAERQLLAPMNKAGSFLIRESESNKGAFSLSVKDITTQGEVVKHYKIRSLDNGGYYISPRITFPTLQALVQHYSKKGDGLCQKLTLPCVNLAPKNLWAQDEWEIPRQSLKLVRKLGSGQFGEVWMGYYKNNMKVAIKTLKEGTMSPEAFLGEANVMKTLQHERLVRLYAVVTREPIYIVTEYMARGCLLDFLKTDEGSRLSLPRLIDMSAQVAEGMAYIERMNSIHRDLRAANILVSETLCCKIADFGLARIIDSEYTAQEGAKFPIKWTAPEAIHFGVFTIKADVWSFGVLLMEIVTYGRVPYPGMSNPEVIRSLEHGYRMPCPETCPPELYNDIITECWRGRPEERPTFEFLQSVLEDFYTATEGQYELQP
Tyrosine-protein kinase Lyn (Homo sapiens), sequence (P07948 2-512 limits assumed): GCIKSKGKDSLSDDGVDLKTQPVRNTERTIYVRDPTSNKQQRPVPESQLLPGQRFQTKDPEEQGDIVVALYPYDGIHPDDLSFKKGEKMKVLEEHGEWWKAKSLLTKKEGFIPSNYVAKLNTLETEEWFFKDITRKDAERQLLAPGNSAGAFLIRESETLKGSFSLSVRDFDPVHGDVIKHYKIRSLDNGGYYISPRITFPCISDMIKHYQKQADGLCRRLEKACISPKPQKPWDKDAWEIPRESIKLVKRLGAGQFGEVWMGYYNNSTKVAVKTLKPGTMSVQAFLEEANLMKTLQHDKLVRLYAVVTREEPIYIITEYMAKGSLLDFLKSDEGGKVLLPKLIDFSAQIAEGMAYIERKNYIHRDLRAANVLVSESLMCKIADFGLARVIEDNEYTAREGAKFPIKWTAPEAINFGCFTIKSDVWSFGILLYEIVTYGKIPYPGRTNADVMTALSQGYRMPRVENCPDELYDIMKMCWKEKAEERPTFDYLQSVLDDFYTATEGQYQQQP
Mitogen-activated protein kinase kinase kinase 20 (Homo sapiens), sequence (Q9NYL2 2-800 limits assumed): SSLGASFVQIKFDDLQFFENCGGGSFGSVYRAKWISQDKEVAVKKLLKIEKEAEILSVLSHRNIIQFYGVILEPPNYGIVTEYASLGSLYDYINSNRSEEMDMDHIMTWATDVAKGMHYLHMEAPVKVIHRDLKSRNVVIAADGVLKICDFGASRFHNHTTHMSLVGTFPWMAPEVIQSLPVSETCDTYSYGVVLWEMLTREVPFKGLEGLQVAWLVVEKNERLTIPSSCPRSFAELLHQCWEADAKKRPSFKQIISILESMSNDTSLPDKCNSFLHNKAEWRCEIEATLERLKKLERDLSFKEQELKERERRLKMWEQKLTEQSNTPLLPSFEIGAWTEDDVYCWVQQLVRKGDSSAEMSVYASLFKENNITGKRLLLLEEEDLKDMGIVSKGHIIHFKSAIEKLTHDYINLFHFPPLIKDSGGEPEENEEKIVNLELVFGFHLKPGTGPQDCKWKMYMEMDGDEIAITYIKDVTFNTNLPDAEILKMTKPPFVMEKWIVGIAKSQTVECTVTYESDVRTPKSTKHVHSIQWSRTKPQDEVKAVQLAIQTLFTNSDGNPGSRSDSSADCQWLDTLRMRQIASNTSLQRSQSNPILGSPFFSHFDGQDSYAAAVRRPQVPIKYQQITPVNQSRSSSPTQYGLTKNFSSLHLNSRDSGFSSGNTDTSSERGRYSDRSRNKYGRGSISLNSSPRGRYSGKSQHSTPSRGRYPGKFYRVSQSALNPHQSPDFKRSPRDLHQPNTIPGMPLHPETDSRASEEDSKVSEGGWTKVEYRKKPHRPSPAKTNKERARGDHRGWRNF

In the case of `CNC(=O)c1cc(Oc2ccc(NC(=O)Nc3ccc(Cl)c(C(F)(F)F)c3)c(F)c2)ccn1`, the Activity was -6% in assay [1]; -1% in [2]; 1% in [3]; 1% in assay [4]; 5% in assay [5]; 9% in [6]. The Activity came to 35% in [7]; 42% in assay [8]; 47% in assay [9]; 1% in assay [10]; 3% in assay [11]; 37% in assay [12]. Besides, the Activity in assay [13] came to 53%; in [14], 21%; in [15], 44%; in [16] it was 27%; in assay [17], 31%; in [18] it was 104%. Besides, the Activity in [19] was 100%; in [20] it was 92%; in assay [21], 103%; in assay [22], 96%.
